Test results taken from patent US20100304426A1, “Analytical Methods for Measuring Synthetic Progesterone” (priority 2009, published 2010).
Where two headings read alike, the source gives them in different places. Marks after values point to notes of the source that are not given here.

Assays:
clinical = conditions: human, in vivo, 200 mg
Description: A definitive low-level LC/MS/MS analytical method to determine the concentrations of synthetic progesterone in human plasma is described. Instrumentation used in this example includes an Applied Biosystems Q-Trap 4000 system using Analyst® 1.4.2 software, Shimadzu LC-20AD HPLC pumps and a LEAP HTC PAL Autosampler. As understood by a person skilled in the art, various similar or equivalent pieces of instrumentation can be used to perform this method. It is also recognized that improved instrumentation can be introduced utilizing equivalent or similar principles of analysis to perform this method similarly or better by being faster, more sensitive, more accurate or more robust relative to the instrumentation used herein. Analyze the pregnant female plasma isotopic ratio standard seven consecutive times. Analyze the synthetic isotopic ratio standard at least seven consecutive times. Analyze the plate beginning with the first calibration sample. Using the data from the seven injections of pregnant female plasma calculate the average area for the progesterone transition and for the progesterone isotope transition. Calculate the ratio by dividing the average area of the progesterone peak by the average area of the isotope peak. This is the natural progesterone ratio. Using the data from the seven injections of the Synthetic Standard calculate the average area for the progesterone transition and for the progesterone isotope transition. Calculate the ratio by dividing the average area of the progesterone peak by the average area of the isotope peak. This is the synthetic progesterone ratio. […] In addition, data presented herein are for fasted post-menopausal women. Fasting can affect progesterone uptake. In this example, healthy, fasted, post-menopausal women orally ingest 1×200 mg progesterone. Plasma samples are obtained from 2 h pre-dose to 24 h post-dose. […] Cmax is the maximum observed concentration and Tmax the time at which Cmax took place. Clast is the value of the last measurable concentration, and […].

[1] = parameters: AUC / Cmax: unit not given beside the values; conditions: from package insert, total progesterone, cited from earlier work
[2] = reported; cited from earlier work

Q: Which AUClast (clinical; po) does the source give for `CC(=O)[C@H]1CC[C@H]2[C@@H]3CCC4=CC(=O)CC[C@]4(C)[C@H]3CC[C@]12C` [Total Progesterone] here?
A: The AUClast was 6.47 ng·h/mL.

Q: And the Tmax (clinical; po)?
A: The Tmax was 2.00 h.

Q: With `CC(=O)[C@H]1CC[C@H]2[C@@H]3CCC4=CC(=O)CC[C@]4(C)[C@H]3CC[C@]12C` [PROMETRIUM, pregn-4-ene-3,20-dione] as the compound, how does the AUC (clinical; female) read?
A: Its AUC is 1.6 ng·h/mL.

Q: And the Cmax (clinical; female)?
A: The Cmax was 3.1 ± 2.3.

Q: And the Cmax (clinical; female, Cmax)?
A: Its Cmax is 1.05 ng/mL.

Q: What about the Tmax (clinical; female, po) of the same compound?
A: Its Tmax is 2.63 h.

Q: What about the AUC(0-t) (clinical; female, po, AUC0-4 h) of the same compound?
A: Its AUC(0-t) is 1.01 to 2.37 ng·h/mL.

Q: And the AUC(0-t) (clinical; female, po, AUClast)?
A: The AUC(0-t) was 2.11 ng·h/mL.

Q: What about the Cmax (clinical; female, po, Cmax) of the same compound?
A: The Cmax was 0.62 to 1.6 ng/mL.

Q: And the AUC ([1]; 100 mg after 5 daily doses)?
A: Its AUC is 43.3 + 30.8.

Q: And the Cmax ([1]; 100 mg after 5 daily doses)?
A: The Cmax was 17.3 + 21.9.

Q: What about the Cmax ([1]; 200 mg after 5 daily doses) of the same compound?
A: The Cmax was 38.1 + 37.8.

Q: What about the Tmax ([1]; 200 mg after 5 daily doses) of the same compound?
A: Its Tmax is 2.3 + 1.4.

Q: And the AUC ([1]; 300 mg after 5 daily doses)?
A: The AUC was 175.7 + 170.3.

Q: And the Cmax ([1]; 300 mg after 5 daily doses)?
A: Its Cmax is 60.6 + 72.5.

Q: What about the Tmax ([1]; 300 mg after 5 daily doses) of the same compound?
A: Its Tmax is 1.7 + 0.6.

Q: For `CC(=O)[C@H]1CC[C@H]2[C@@H]3CCC4=CC(=O)CC[C@]4(C)[C@H]3CC[C@]12C` [progesterone], which “half life in the circulation” value [2] is on record?
A: Its value is “only a few minutes”.

Q: For `CC(=O)[C@H]1CC[C@H]2[C@@H]3CCC4=CC(=O)CC[C@]4(C)[C@H]3CC[C@]12C` [Endogenous Progesterone], which AUClast (clinical; po) is on record?
A: Its AUClast is 3.84 ng·h/mL.

Q: What about the Tmax (clinical; po) of the same compound?
A: Its Tmax is 2.33^a h.
